Consider two compounds from ChEMBL document CHEMBL2424624, “Syntheses and antitumor activities of N'1,N'3-dialkyl-N'1,N'3-di-(alkylcarbonothioyl) malonohydrazide: the discovery of elesclomol” (Bioorg Med Chem Lett, 2013).

Format in all cases: ADME, organism-based
The nature of series [1]: Half life in nu/nu mouse at 5 mg/kg in presence of STA-4783. Set-up: dose 5 mg/kg. Particulars: in vivo.
Series [2] is described as follows: AUC in nu/nu mouse at 5 mg/kg in presence of STA-4783. The arrangement: dose 5 mg/kg. To be noted: plasma.
A short description of series [3]: Cmax in rat at 5 mg/kg in presence of STA-4783. The arrangement: dose 5 mg/kg. To be noted: in vivo.
Series [4] is described as follows: Cmax in nu/nu mouse at 5 mg/kg in presence of STA-4783. The arrangement: dose 5 mg/kg. Particulars: in vivo.
Series [5] is described as follows: AUC in rat at 5 mg/kg in presence of STA-4783. The arrangement: dose 5 mg/kg. Particulars: plasma.
The nature of series [6]: Apparent terminal half life in nu/nu mouse at 25 mg/kg, iv. Set-up: dose 25 mg/kg, route intravenous. To be noted: in vivo, read-out: betat1/2(app) (converted).
Series [7] in a line: Cmax in rat at 25 mg/kg in presence of taxol. Set-up: dose 25 mg/kg. To be noted: in vivo.
Series [8] in a line: AUC in rat at 5 mg/kg. Set-up: dose 5 mg/kg. To be noted: plasma.
Series [9] in a line: Clearance in nu/nu mouse at 25 mg/kg, iv. The arrangement: dose 25 mg/kg, route intravenous. To be noted: in vivo.
A short description of series [10]: AUC in Sprague-Dawley rat at 25 mg/kg, iv. The arrangement: dose 25 mg/kg, route intravenous. Particulars: plasma.
Series [11] is described as follows: Volume of distribution at steady state in Sprague-Dawley rat at 25 mg/kg, iv. The arrangement: dose 25 mg/kg, route intravenous. Particulars: in vivo, read-out: Vdss.
Series [12] can be described thus: AUC in nu/nu mouse at 25 mg/kg, iv. Particulars: plasma. Set-up: dose 25 mg/kg, route intravenous.
Series [13] in a line: Half life in rat at 25 mg/kg in presence of taxol. The arrangement: dose 25 mg/kg. To be noted: in vivo.
The nature of series [14]: Clearance in Sprague-Dawley rat at 25 mg/kg, iv. The arrangement: dose 25 mg/kg, route intravenous. To be noted: in vivo.
A short description of series [15]: Half life in nu/nu mouse at 25 mg/kg in presence of taxol. The arrangement: dose 25 mg/kg. To be noted: in vivo.
A short description of series [16]: Cmax in Sprague-Dawley rat at 25 mg/kg, iv. Set-up: dose 25 mg/kg, route intravenous. To be noted: in vivo.
A short description of series [17]: Half life in rat at 5 mg/kg. The arrangement: dose 5 mg/kg. Particulars: in vivo.
Series [18] can be described thus: Cmax in rat at 5 mg/kg. Set-up: dose 5 mg/kg. To be noted: in vivo.
The nature of series [19]: Cmax in nu/nu mouse at 25 mg/kg in presence of taxol. The arrangement: dose 25 mg/kg. To be noted: in vivo.
The nature of series [20]: AUC in nu/nu mouse at 25 mg/kg in presence of taxol. The arrangement: dose 25 mg/kg. Particulars: plasma.
A short description of series [21]: Apparent terminal half life in Sprague-Dawley rat at 25 mg/kg, iv. Set-up: dose 25 mg/kg, route intravenous. Particulars: in vivo, read-out: betat1/2(app) (converted).
The nature of series [22]: Cmax in nu/nu mouse at 25 mg/kg, iv. Particulars: in vivo. Set-up: dose 25 mg/kg, route intravenous.
Series [23] can be described thus: AUC in rat at 25 mg/kg in presence of taxol. Set-up: dose 25 mg/kg. Particulars: plasma.
Series [24] can be described thus: Volume of distribution at steady state in nu/nu mouse at 25 mg/kg, iv. Set-up: dose 25 mg/kg, route intravenous. Particulars: in vivo, read-out: Vdss.

Consider `CC(=O)O[C@H]1C(=O)[C@@]2(C)[C@H]([C@H](OC(=O)c3ccccc3)[C@]3(O)C[C@H](OC(=O)[C@H](O)[C@@H](NC(=O)c4ccccc4)c4ccccc4)C(C)=C1C3(C)C)[C@]1(OC(C)=O)CO[C@@H]1C[C@@H]2O` [PACLITAXEL], for which the half-life in series [1] is 2.26 h. The values for the area under the curve (AUC) in series [2] and in series [5] were 2.95 µM·h and 11.9 µM·h, respectively. The figures for the Cmax in series [3] and in series [4] were 20.4 µM and 10.6 µM, respectively.

`CN(NC(=O)CC(=O)NN(C)C(=S)c1ccccc1)C(=S)c1ccccc1` [ELESCLOMOL]: the half-life in series [6] was 1.9 h; in [13], 1.7 h; in series [15], 1.2 h; in series [17], 3.1 h; in series [21], 1.94 h. Also, the Cmax (as a rule, the maximum level reached in the sampled fluid or tissue) in series [7] is 63.3 µM; in [16], 56.3 µM; in [18] it was 21.7 µM; in series [19], 37.8 µM; in series [22], 85.2 µM. Further, the AUC (commonly concentration integrated over time) in [8] stood at 10.3 µM·h; in series [10], 32.7 µM·h; in series [12], 35.9 µM·h; in series [20], 11.9 µM·h; in series [23], 36.8 µM·h. Further, the clearance (commonly the rate of elimination divided by the concentration) was 1.74 L/h/kg in series [9] and 0.79 L/h/kg in series [14]. Also, the Vd in series [11] was determined as 0.1 L/kg; in series [24], 0.51 L/kg.
